# Measurements taken from publication PMC4077652, “An Unstable Th Epitope of P. falciparum Fosters Central Memory T Cells and Anti-CS Antibody Responses” (PLoS ONE, 2014).
# Where two headings read alike, the source gives them in different places. Where no end group is shown, it is not given here.
# Tests used:
# HLA-DRβ1*04:01 (DR4) [1] = biological target: T1, HLA-DRβ1*04:01 (DR4) (Homo sapiens, UniProt P01903+P01911, A100K/A169T/F76Y/I96L/K127E/L162R/M171V/N62H/P40V/Q125Y/R42H/S133A/S149N/S66Y/V115G/V209L/W38E); test: biochemical; assay type: binding
# HLA-DRβ1*04:01 (DR4) [2] = biological target: T1, HLA-DRβ1*04:01 (DR4); test: biochemical; assay type: binding; remark: listed apart in the source
# HLA-DR4 = HLA-DR4 (Homo sapiens, UniProt P01903+P01911, A100K/A169T/F76Y/I96L/K127E/L162R/M171V/N62H/P40V/Q125Y/R42H/S133A/S149N/S66Y/V115G/V209L/W38E); conditions: binding to HLA-DR4, previously reported; read-out: IC50, competition binding assay; cited from earlier work
# [3] = IC50, competition binding assay
Molecule,IC50 (HLA-DRβ1*04:01 (DR4) [1]),other results
"CC(C)[C@H](NC(=O)[C@H](CC(N)=O)NC(=O)[C@@H]1CCCN1C(=O)[C@H](CC(N)=O)NC(=O)[C@H](C)NC(=O)[C@H](CC(N)=O)NC(=O)[C@@H]1CCCN1C(=O)[C@H](CC(=O)O)NC(=O)[C@@H](NC(=O)[C@H](CC(N)=O)NC(=O)[C@@H]1CCCN1C(=O)[C@H](CC(N)=O)NC(=O)[C@H](C)NC(=O)[C@H](CC(N)=O)NC(=O)[C@@H]1CCCN1C(=O)[C@@H](N)CC(=O)O)C(C)C)C(=O)O [T1, reference compound]",–,"IC50 (HLA-DRβ1*04:01 (DR4) [1]; IC50, binding to DRβ1*04:01): ~18 µM"
Ac-ANSLSTEWSPCSVT-NH2 [Q332A],1.19 µM,–
Ac-LSTEWSPCS-NH2 [QN-335-343],75.8 µM,–
Ac-QASLSTEWSPCSVT-NH2 [N333A],2.65 µM,–
Ac-QNALSTEWSPCSVT-NH2 [S334A],1.14 µM,–
Ac-QNSASTEWSPCSVT-NH2 [L335A],68.4 µM,–
Ac-QNSLATEWSPCSVT-NH2 [S336A],0.91 µM,–
Ac-QNSLSAEWSPCSVT-NH2 [T337A],1.3 µM,–
Ac-QNSLSTAWSPCSVT-NH2 [E338A],3.4 µM,–
Ac-QNSLSTEASPCSVT-NH2 [W339A],1.42 µM,–
Ac-QNSLSTEWAPCSVT-NH2 [S340A],24.6 µM,–
Ac-QNSLSTEWSACSVT-NH2 [P341A],7.75 µM,–
Ac-QNSLSTEWSPASVT-NH2 [C342A],0.73 µM,–
Ac-QNSLSTEWSPCAVT-NH2 [S343A],0.7 µM,–
Ac-QNSLSTEWSPCS-NH2 [QN-332-343],5.58 µM,–
Ac-QNSLSTEWSPCSAT-NH2 [V344A],0.44 µM,–
Ac-QNSLSTEWSPCSVA-NH2 [T345A],0.71 µM,–
Ac-SLSTEWSPCSVT-NH2 [QN-334-345],2.82 µM,–
Ac-STEWSPCS-NH2 [QN-336-343],6740 µM,–
QNSLSTEWSPCSVT [QNT-5],–,"IC50 (HLA-DRβ1*04:01 (DR4) [1]; IC50 (quoted from Table 2)): ~0.025 µM; IC50 (HLA-DRβ1*04:01 (DR4) [1]; [3]): ~1.7 µM; IC50 (HLA-DRβ1*04:01 (DR4) [1]; IC50 range values (95% C.I.)): 1.53 to 1.85 µM; Kd (HLA-DRβ1*04:01 (DR4) [2]; apparent equilibrium binding affinity, […], DR-ELISA, read-out: Kd (nM) DM+): 714.1 ± 3.9 nM; Kd (HLA-DRβ1*04:01 (DR4) [2]; apparent equilibrium binding affinity, […], DR-ELISA, read-out: Kd (nM) DM-): 504 ± 86.2 nM"
QNSYSTEWSPCSVT [QNT-Y],–,IC50 (HLA-DRβ1*04:01 (DR4) [1]; IC50 (quoted from Table 2)): ~0.5 µM; IC50 (HLA-DRβ1*04:01 (DR4) [1]; [3]): ~0.13 µM; IC50 (HLA-DRβ1*04:01 (DR4) [1]; IC50 range values (95% C.I.)): 0.124 to 0.14 µM; Kd (HLA-DRβ1*04:01 (DR4) [2]; Kd (nM) DM+): 35.7 ± 20.5 nM; Kd (HLA-DRβ1*04:01 (DR4) [2]; Kd (nM) DM-): 25.5 ± 10.7 nM
SLSTEWSPCSV [T*-5],–,IC50 (HLA-DR4): 0.9 µM
